Data: patent publication US9427446B2, “Stable injectable composition containing diclofenac and thiocolchicoside” (EPIFARMA S.R.L., priority 2012, dated 2016)

Assay: Suitability of BHT as antioxidant for a solution of diclofenac and thiocolchicoside (solubility/precipitation on storage)
Assay type: physicochemical
Conditions: ordinary storage conditions

Solubility / precipitation as antioxidant in a solution of diclofenac and thiocolchicoside: poor solubility and precipitation
Compound: Cc1cc(C(C)(C)C)c(O)c(C(C)(C)C)c1 [BHT, 2,6-bis(1,1-dimethylethyl)-4-methylphenol]
